According to article PMC12117711, “The contribution of cyclic imide stereoisomers on cereblon-dependent activity†” (Chemical Science, 2025):
One block for each molecule: values may come before it. Non-standard residues stand in square brackets, D forms with d. No end group written: not given here. *: point of attachment. epicN = C-terminal cyclic asparagine (aspartimide), (R)-epimer, epimer of cN, O=C1C[C@@H](N*)C(=O)N1; cQ = C-terminal cyclic glutamine (glutarimide), (S)-epimer, O=C1CC[C@H](N*)C(=O)N1; Fmoc = O=C(OCC1c2ccccc2-c2ccccc21)*

Legend:
CRBN = system: CRBN; set-up: method as in PMID 29358579, PMID 32929090, PMID 25043012, PMID 25108355; settings: cited from earlier work
[1] = in vitro, 0.1 M phosphate buffer (pH 7.4), 37 °C; cited from earlier work
His6-CRBN/DDB1 = His6-CRBN/DDB1 (Homo sapiens, UniProt Q96SW2); assay: TR-FRET ligand displacement assay (Thal-FITC tracer) with His6-CRBN/DDB1
[2] = target: T1, His6-CRBN/DDB1 and GST-BRD4(BD2) (Homo sapiens, UniProt O60885+Q96SW2); assay: AlphaScreen ternary complex formation, His6-CRBN/DDB1 and GST-BRD4(BD2); type: binding
T1 construct: His6-CRBN/DDB1 complex and GST-BRD4 BD2 domain; purchased Epicypher (GST-BRD4(BD2)); Bristol Myers Squibb gift (His6-CRBN/DDB1) 15-0013
Protocol: AlphaScreen was performed according to the previously reported method.7 Briefly, for AlphaScreen of His6-CRBN/DDB1, GST-IKZF1 and (S)-, (R)- or rac-lenalidomide-d3, a solution of 100 nM His6-CRBN/DDB1 and 200 nM GST-IKZF1 in 1x AlphaScreen buffer (5 µL) and a solution of the indicated compound in 1x AlphaScreen buffer (5 µL) were added to a each well of a 384-well Optiplate and incubated at 24 °C for 1 h. To each well, a solution of 5 µL of 60 µg/mL AlphaScreen Glutathione Donor beads, 60 µg/mL AlphaLISA Nickel Chelate Donor beads in 1× AlphaScreen buffer was added to each well and incubated at 24 °C for 1 h in the dark and the plate was analyzed. For AlphaScreen of His6-CRBN/DDB1, GST-BRD4(BD2) and bivalent degraders, a solution of 750 nM His-CRBN/DDB1 and 375 nM GST-BRD4(BD2) in 1x AlphaScreen buffer (5 µL) and a solution of the indicated compound in 1x AlphaScreen buffer (5 µL) were added to a each well of a 384-well Optiplate and incubated at 24 °C for 1 h. To each well, a solution of 5 µL of 60 µg/mL AlphaScreen Glutathione Donor beads, 60 µg/mL AlphaLISA Nickel Chelate Donor beads in 1× AlphaScreen buffer was added to each well and incubated at 24 °C for 1 h in the dark and the plate was analyzed. […]
heated at 95 °C for 5 min. 10 µL of the immunoprecipitated sample was load on a 12% Tris-glycine gel and probe-labeling was visualized by fluorescence signal. Separately, 10 µL of the immunoprecipitated sample and the “input” sample were load on a 12% Tris-glycine gel and analyzed by Western blotting. […]
Parental cell lines were stably infected with a unique 24-nucleotide DNA barcode via lentiviral transduction and blasticidin selection. […] Passing barcoded lines were then pooled (20-25 cell lines per pool) based on doubling time and frozen in assay-ready vials.
Test compounds were added to 384-well plates and run at 8 pt. dose with 3-fold dilutions, the highest concentration of 25 µM in triplicate. These assay ready plates were then seeded with […]

MOLM13 cells = assay: Global quantitative proteomics of protein levels; type: cell-based; settings: 4 h; for FC [fold change abundances (S/DMSO)] / logFC (S vs DMSO): MOLM13, 100 nM
Protocol: Global Quantitative Proteomics Sample Preparation and Mass Spectrometry Acquisition Global Quantitative Proteomics was performed according to the previously reported method.7 Briefly, 1.0×10^6 MOLM13 cells were seeded in 12-well plates and small molecules of interest were added, and cells were incubated at 37 °C, 5% CO2 for 4 hours. Cells were collected […]
15 sec in total, 11% amplitude) in lysis buffer (5% SDS in 50 mM triethylammonium bicarbonate (TEAB), pH 7.55), and cleared by centrifugation (21,000 × g, 4 °C, 10 min). After protein quantification by BCA protein assay, the lysates were diluted to 1.5 mg/mL with the lysis buffer. The diluted lysates (60 μL) were reduced by addition of dithiothreitol (20 mM) at 24 °C for 30 min then alkylated by addition of iodoacetamide (40 mM) and incubation in the dark at 24 °C for 30 min.

[3] = target: T2, BRD4(BD1)-GFP in HEK293T cells (Homo sapiens, UniProt O60885+Q96SW2); assay: Degradation assay by flow cytometry, BRD4(BD1)-GFP; type: cell-based; settings: 76 pM–20 μM, 4 h
T2 construct: HEK293T cells stably expressing BRD4(BD1) fused to GFP
Protocol: (v21.1.1) and Adobe Illustrator (v24.1).
MM.1S, MOLM13, Jurkat, and BxPC3 […]
μg/mL), and 10% (v/v) FBS.
Western Blotting Procedures […]
lysates and the concentration was adjusted using lysis buffer. 5× SDS-PAGE loading buffer […]
Protein samples (8–15 μL per lane) were […]
precast gels for medium molecular weight proteins. Gels were transferred to membranes using […]
for high molecular weight proteins. Membranes were stained with Ponceau S solution to visualize transfer and protein loading.
Degradation assay by flow cytometry […]
resuspension in DMEM +/– without phenol red. For IKZF1 degradation assay, propidium […]
equipped with a high throughput sampler. […]
using the BD FACSDiva software v9.1. For each experimental condition, the arithmetic mean […]
comparing compound treatment to DMSO control.
Structural proteomics mass spectrometry sample preparation […]
sample throughout the assay duration. The same analysis was also applied to the (S)- […]
dependent activity, we adjusted the dose-response curves accordingly. Because dose- […]
within the error margins of the original curve. […]
squares F-test. This analysis determined whether there was a statistically significant […]
derived (S)-enantiomer. If there is a statistically significant difference, the null […]
Cells were treated with 1 μM MLN4924
The cells were collected and lysed in […]
centrifugation (21,000 × g, 4 °C, 10 min). […]

His6-CRBN/DDB1 complex [4] = target: His6-CRBN/DDB1 complex (UniProt Q96SW2); assay: AlphaScreen or HTRF; competitive TR-FRET ligand displacement assay against recombinant His6-CRBN/DDB1; KD from dose-titration of the ligand
His6-CRBN/DDB1 complex [5] = target: T3, His6-CRBN/DDB1 complex (UniProt Q96SW2 1-442; Q16531 1-1140); assay: AlphaScreen or HTRF; competitive TR-FRET ligand displacement; peptide titrated against recombinant His6-CRBN/DDB1 (2.5 nM) with the tracer Thalidomide-FITC (50 nM); KD from IC50 by the correction factor 1.426 (tracer KD 2-site 117.3 nM); settings: both partners purified
T3 construct: cereblon (CRBN), E3 ligase substrate adapter; DDB1, in complex with His6-CRBN; Column 'Protein' of S0003 says only 'CRBN'; the text and legends name His6-CRBN/DDB1 for this TR-FRET assay; also called cereblon; source: recombinant

His6-CRBN/DDB1 complex [6] = target: T4, His6-CRBN/DDB1 complex (UniProt Q96SW2 1-442; Q16531 1-1140); assay: AlphaScreen or HTRF; competitive TR-FRET ligand displacement assay against recombinant His6-CRBN/DDB1; KD from dose-titration of the ligand; settings: both partners purified
T4 construct: cereblon (CRBN), E3 ligase substrate adapter; DDB1, in complex with CRBN; Used as a preformed complex in TR-FRET and AlphaScreen; also called cereblon; source: recombinant

Kd (His6-CRBN/DDB1; KD, competitive TR-FRET, His6-CRBN/DDB1): < 1 nM | Kd (His6-CRBN/DDB1; predicted KD of the (S)-stereoisomer, ligand displacement assay adjusted for (S)-stereoisomer, (S)-stereoisomer in the (S)-sample, corrected for racemization): 2.9 ± 0.2 nM | degradation of BRD4(BD1)-GFP [3]: depleted BRD4 in a dose-dependent manner
Molecule: [2H]C1([2H])C[C@]([2H])(N2Cc3cc(NC(=O)CCCCCCCCNC(=O)C[C@@H]4N=C(c5ccc(Cl)cc5)c5c(sc(C)c5C)-n5c(C)nnc54)ccc3C2=O)C(=O)NC1=O [JQ1-(S)-Len-d3]
ternary complex formation between His6-CRBN/DDB1 and GST-BRD4(BD2) [2]: promoted a significant ternary complex formation | BRD4 protein levels by global quantitative proteomics (MOLM13 cells; MOLM13 cells, 100 nM): most significantly downregulated protein | FC [fold change abundances (S/DMSO)] (MOLM13 cells; protein BRD4): -1.354 | logFC (S vs DMSO) (MOLM13 cells; protein BRD4): -0.6026 | FC [fold change abundances (S/DMSO)] (MOLM13 cells; protein BRI3BP): 2.54 | logFC (S vs DMSO) (MOLM13 cells; protein BRI3BP): 1.398 | FC [fold change abundances (S/DMSO)] (MOLM13 cells; protein C8orf33): 1.053 | logFC (S vs DMSO) (MOLM13 cells; protein C8orf33): 0.3248 | FC [fold change abundances (S/DMSO)] (MOLM13 cells; protein KPNA3): 1.127 | logFC (S vs DMSO) (MOLM13 cells; protein KPNA3): 0.397 | FC [fold change abundances (S/DMSO)] (MOLM13 cells; protein PSME2): 1.009 | logFC (S vs DMSO) (MOLM13 cells; protein PSME2): 0.2805

Kd (His6-CRBN/DDB1 complex [4]): 2870 nM | IC50 (His6-CRBN/DDB1 complex [5]): 4090 nM
Molecule: Fmoc-GGGF[epicN] (pentapeptide; source: synthetic peptide) [Fmoc-GGGFepicN]

Kd (His6-CRBN/DDB1 complex [6]): 89 nM
B1: Fmoc-GGGFcQ (peptide)
peptide: Fmoc-GGGF[cQ]
notes: pentapeptide bearing the (S)-epimer of cyclic glutamine at the C-terminus; also called FcQ pentapeptide; source: synthetic peptide

Second part, the molecule before the results:

Molecule: O=C1CC[C@H](N2C(=O)c3ccccc3C2=O)C(=O)N1 [(S)-thalidomide]
fold greater binding affinity to CRBN than (R)-thalidomide (CRBN): approximately 10 fold

Molecule: O=C1CC[C@@H](N2C(=O)c3ccccc3C2=O)C(=O)N1 [(R)-thalidomide]
t50%ee (racemization half-life) [1]: 2.9 h
